Measured values as given in paper PMC11850406, “Large-scale screening of HIV-1 T-cell epitopes restricted by 12 prevalent HLA-A allotypes in Northeast Asia and universal detection of HIV-1-specific CD8^+ T cells” (Frontiers in Microbiology, 2025).
Like-named read-outs stand apart in the source and are kept apart here. Where no end group is shown, it is not given here.

Assays:
HLA-A0207 = target: T1, HLA-A0207 (Homo sapiens, UniProt P04439, D140Y/D185E/D98H/E176V/E277Q/G131W/G231S/I119V/I121R/I166T/I218V/L300P/L318F/N151K/N90K/P208A/P217A/Q86G/Q94H/R138H/R169H/T345S/Y123C); experiment: Peptide competitive binding assay, HMy2.CIR cells expressing A0207; settings: 24 h, 4°C, flow cytometry; for inhibition at 5 µM / 5-μM inhibition (%): peptide 5 μM vs FITC-labeled reference peptide 300 nM; for inhibition at 15 µM / 15-μM inhibition (%): peptide 15 μM vs FITC-labeled reference peptide 300 nM
T1 construct: expressed in transfected cells; host or cells: HMy2.CIR

HLA-A0201 = target: T2, HLA-A0201 (Homo sapiens, UniProt P04439, D140Y/D185E/D98H/E176V/E277Q/G131W/G231S/I119V/I121R/I166T/I218V/L300P/L318F/N151K/N90K/P208A/P217A/Q86G/Q94H/R138H/R169H/T345S); experiment: cell-based; assay type: binding; settings: for inhibition at 5 µM / inhibition at 15 µM / 5-μM inhibition (%) / 15-μM inhibition (%): A0201, 24 h, 4°C, flow cytometry; for inhibition at 5 µM / 5-μM inhibition (%): peptide 5 μM vs FITC-labeled reference peptide 300 nM; for inhibition at 5 µM: read-out: 5-μM inhibition (%); for inhibition at 15 µM / 15-μM inhibition (%): peptide 15 μM vs FITC-labeled reference peptide 300 nM; for inhibition at 15 µM: read-out: 15-μM inhibition (%)
T2 construct: expressed in transfected cells; host or cells: HMy2.CIR

HLA-A3101 = target: T3, HLA-A3101 (Homo sapiens, UniProt P04439, A270S/D185E/E176V/E277Q/F33T/G231S/G80R/H175R/I121M/I218V/I322F/K168Q/L300P/L318F/M331R/P217A/Q94H/R138Q/T323A/T345S/T97I/V358M); experiment: Peptide competitive binding assay, HMy2.CIR cells expressing A3101; settings: for IC50: read-out: Affinity; for inhibition at 5 µM / 5-μM inhibition (%): peptide 5 μM vs FITC-labeled reference peptide 300 nM; for inhibition at 5 µM / inhibition at 15 µM / 5-μM inhibition (%) / 15-μM inhibition (%): 24 h, 4°C, flow cytometry; for inhibition at 15 µM / 15-μM inhibition (%): peptide 15 μM vs FITC-labeled reference peptide 300 nM
T3 construct: expressed in transfected cells; host or cells: HMy2.CIR

HLA-A1102 = HLA-A1102 (Homo sapiens, UniProt P04439, A114D/D185E/E176A/E43K/F33Y/L180Q/S129P/T187R); experiment: cell-based; assay type: binding; settings: for inhibition at 5 µM: read-out: 5-μM inhibition (%); for inhibition at 15 µM: read-out: 15-μM inhibition (%)
HLA-A3001 = target: T4, HLA-A3001 (Homo sapiens, UniProt P04439, D140H/D185E/E176W/F33S/G80R/H175R/K168Q/R138E/R41S); experiment: cell-based; assay type: binding
T4 construct: expressed in transfected cells; host or cells: HMy2.CIR

HLA-A1101 = target: T5, HLA-A1101 (Homo sapiens, UniProt P04439, A114D/D185E/E176A/F33Y/L180Q/S129P/T187R); experiment: cell-based; assay type: binding; settings: for inhibition at 5 µM / inhibition at 15 µM: A1101, 24 h, 4°C, flow cytometry; for inhibition at 5 µM: peptide 5 μM vs FITC-labeled reference peptide 300 nM, read-out: 5-μM inhibition (%); for inhibition at 15 µM: peptide 15 μM vs FITC-labeled reference peptide 300 nM, read-out: 15-μM inhibition (%)
T5 construct: expressed in transfected cells; host or cells: HMy2.CIR

HLA-A0203 = target: T6, HLA-A0203 (Homo sapiens, UniProt P04439, A173T/D140Y/D185E/D98H/E277Q/G131W/G231S/I119V/I121R/I166T/I218V/L180W/L300P/L318F/N151K/N90K/P208A/P217A/Q86G/Q94H/R138H/R169H/T345S); experiment: cell-based; assay type: binding; settings: A0203, 24 h, 4°C, flow cytometry
T6 construct: expressed in transfected cells; host or cells: HMy2.CIR

[1] = A1102, peptide 5 μM vs FITC-labeled reference peptide 300 nM, 24 h, 4°C, flow cytometry
[2] = A1102, peptide 15 μM vs FITC-labeled reference peptide 300 nM, 24 h, 4°C, flow cytometry
[3] = A3001, peptide 5 μM vs FITC-labeled reference peptide 300 nM, 24 h, 4°C, flow cytometry
[4] = A3001, peptide 15 μM vs FITC-labeled reference peptide 300 nM, 24 h, 4°C, flow cytometry

QLPEKDSWTV [Peptide P14]
inhibition at 5 µM (HLA-A0207): 0%
inhibition at 15 µM (HLA-A0207): 8.35%
IC50 (HLA-A0201): 5 to 15 µM
inhibition at 5 µM (HLA-A0201): 27.6%
inhibition at 15 µM (HLA-A0201): 81.5%

QLTEVVQKV [Peptide P80]
5-μM inhibition (%) (HLA-A0207): 20.67%
15-μM inhibition (%) (HLA-A0207): 25.60%

RAKRRVVER [Peptide P98]
IC50 (HLA-A3101; A3101, class from inhibition at 5 and 15 μM of FITC-labeled reference peptide binding): 5 to 15 µM
inhibition at 5 µM (HLA-A3101; A3101): 47.9%
inhibition at 15 µM (HLA-A3101; A3101): 82%

RANSPTSRK [Peptide P88]
5-μM inhibition (%) (HLA-A1102; [1]): 0.00%
15-μM inhibition (%) (HLA-A1102; [2]): 0.35%

RIKCFNCGR [Peptide P96]
5-μM inhibition (%) (HLA-A3101; A3101): 0.00%
15-μM inhibition (%) (HLA-A3101; A3101): 0.00%

RLRGFILVA [Peptide P92]
5-μM inhibition (%) (HLA-A3001; [3]): 18.53%
15-μM inhibition (%) (HLA-A3001; [4]): 39.48%

RLRPGGRKK [Peptide P89]
5-μM inhibition (%) (HLA-A3001; [3]): 27.40%
15-μM inhibition (%) (HLA-A3001; [4]): 39.48%

RSNFKGSKR [Peptide P97]
inhibition at 5 µM (HLA-A3101; A3101): 66.6%
inhibition at 15 µM (HLA-A3101; A3101): 92.9%
IC50 (HLA-A3101): < 5 µM

RVRQGYSPL [Peptide P91]
IC50 (HLA-A3001): < 5 µM
inhibition at 5 µM (HLA-A3001; A3001, peptide 5 μM vs FITC-labeled reference peptide 300 nM, 24 h, 4°C, flow cytometry, read-out: 5-μM inhibition (%)): 92.4%
inhibition at 15 µM (HLA-A3001; A3001, peptide 15 μM vs FITC-labeled reference peptide 300 nM, 24 h, 4°C, flow cytometry, read-out: 15-μM inhibition (%)): 100%

SILDIRQGPK [Peptide P33]
IC50 (HLA-A1101): < 5 µM
inhibition at 5 µM (HLA-A1101): 83.2%
inhibition at 15 µM (HLA-A1101): 93.1%
IC50 (HLA-A1102): 5 to 15 µM
inhibition at 5 µM (HLA-A1102; [1]): 16.8%
inhibition at 15 µM (HLA-A1102; [2]): 50.6%

SLFNTVATL [Peptide P10]
5-μM inhibition (%) (HLA-A0207): 0.00%
15-μM inhibition (%) (HLA-A0207): 7.34%
5-μM inhibition (%) (HLA-A0203; peptide 5 μM vs FITC-labeled reference peptide 300 nM): 20.39%
15-μM inhibition (%) (HLA-A0203; peptide 15 μM vs FITC-labeled reference peptide 300 nM): 42.50%
5-μM inhibition (%) (HLA-A0201): 15.75%
15-μM inhibition (%) (HLA-A0201): 31.36%

TSLPKQEQK [Peptide P31]
IC50 (HLA-A1101): < 5 µM
inhibition at 5 µM (HLA-A1101): 75.2%
inhibition at 15 µM (HLA-A1101): 86.5%
inhibition at 5 µM (HLA-A1102; [1]): 4.16%
inhibition at 15 µM (HLA-A1102; [2]): 18%

VLDVGDAYF [Peptide P81]
5-μM inhibition (%) (HLA-A0207): 0.00%
15-μM inhibition (%) (HLA-A0207): 23.16%

VTGIRKNYR [Peptide P99]
5-μM inhibition (%) (HLA-A3101; A3101): 0.00%
15-μM inhibition (%) (HLA-A3101; A3101): 15.00%

YLKDQKFLGL [Peptide P78]
5-μM inhibition (%) (HLA-A0207): 11.50%
15-μM inhibition (%) (HLA-A0207): 30.40%

YMEAEVIPA [Peptide P82]
5-μM inhibition (%) (HLA-A0207): 13.67%
15-μM inhibition (%) (HLA-A0207): 30.79%

YQLEKDPIV [Peptide P11]
5-μM inhibition (%) (HLA-A0207): 5.57%
15-μM inhibition (%) (HLA-A0207): 12.66%
5-μM inhibition (%) (HLA-A0201): 5.87%
15-μM inhibition (%) (HLA-A0201): 28.56%

YQYMDDLYV [Peptide P15]
inhibition at 5 µM (HLA-A0207): 20.1%
inhibition at 15 µM (HLA-A0207): 27.6%
IC50 (HLA-A0201): < 5 µM
inhibition at 5 µM (HLA-A0201): 56.5%
inhibition at 15 µM (HLA-A0201): 83%

YVDRFFKTL [Peptide P76]
5-μM inhibition (%) (HLA-A0207): 11.90%
15-μM inhibition (%) (HLA-A0207): 30.60%
